Laboratory results published in the SangsterLogP compilation.

experiment: method code SF-AS, from DOI: 10.1139/v66-154

Row | logP | Compound
1 | 1.73 | CC(=O)NC1=C(Nc2ccccc2)C(=O)c2ccccc2C1=O
2 | 4.26 | CCCCNC1=C(Cl)C(=O)c2ccccc2C1=O
3 | 4.4 | O=C1C=C(c2ccccc2)C(=O)c2ccccc21
4 | 1.29 | CC(=O)NC1=CC(=O)c2ccccc2C1=O
5 | 1.35 | COC1=CC(=O)c2ccccc2C1=O
6 | 4.22 | O=C1C(Cl)=C(Nc2ccccc2)C(=O)c2ccccc21
7 | 2.49 | Cc1cc2c(cc1C)C(=O)C=CC2=O
8 | 1.2 | CC1=C(O)c2ccccc2C(=O)C1=O
9 | 2.15 | O=C1C=C(Cl)C(=O)c2ccccc21
10 | 3.11 | CCCCNC1=CC(=O)c2ccccc2C1=O
11 | 2.14 | COC1=C(C)C(=O)c2ccccc2C1=O
12 | 3.29 | CCCCSC1=CC(=O)c2ccccc2C1=O
13 | 2.84 | O=C1C=C(Nc2ccccc2)C(=O)c2ccccc21
14 | 2.14 | O=C1C=C(S(=O)(=O)c2ccccc2)C(=O)c2ccccc21
15 | 2.07 | CCCCSC1=C(NC(C)=O)C(=O)c2ccccc2C1=O
16 | 2.1 | Cc1ccc2c(c1)C(=O)C=CC2=O
17 | 3.38 | O=C1C(Nc2ccccc2)=C(S(=O)(=O)c2ccccc2)C(=O)c2ccccc21

Row | Compound | logP
18 | O=[N+]([O-])/C=C/c1ccccc1Cl | 2.85
19 | CN(C)c1ccc(/C=C/[N+](=O)[O-])cc1 | 2.67
20 | O=[N+]([O-])/C=C/c1cccc([N+](=O)[O-])c1 | 1.82
21 | O=[N+]([O-])/C=C/c1cccc(Cl)c1 | 2.57
22 | O=[N+]([O-])/C=C/c1ccc([N+](=O)[O-])cc1 | 1.89
23 | O=[N+]([O-])/C=C/c1ccccc1[N+](=O)[O-] | 1.8
24 | C/C(=C\c1ccccc1)[N+](=O)[O-] | 2.52
25 | COc1cc(C=C[N+](=O)[O-])ccc1O | 1.88
26 | COc1cccc(/C=C/[N+](=O)[O-])c1 | 2.3
27 | O=[N+]([O-])C=Cc1cccc(O)c1 | 2.07
28 | O=C1C=CC(=O)c2ccccc21 | 1.71
29 | O=[N+]([O-])/C=C/c1ccc(O)cc1 | 2.12
30 | O=[N+]([O-])C=Cc1ccccc1 | 2.11
31 | O=[N+]([O-])/C=C/c1ccc(Cl)cc1 | 2.44
32 | O=[N+]([O-])C=Cc1cc([N+](=O)[O-])ccc1Cl | 2.23
